{"source": "patent US20220016060A1", "about": "“USE OF SODIUM 2-(3-PENTYLPHENYL)ACETATE IN THE TREATMENT OF ALSTRÖM SYNDROME” (LIMINAL BIOSCIENCES LIMITED, priority 2018, published 2022)", "type_in_all_cases": "in vivo, human", "key": {"[1]": {"test_system": "ALMS patients", "experiment": "Glycated hemoglobin (HbA1c)", "details": "for Change from Baseline HbA1c, Mean / Change from Baseline HbA1c, Median / HbA1c: 800 mg daily oral; for HbA1c: individual subjects", "method": "The study was a Phase 2, single-centre, single-arm, open-label study of sodium 2-(3-pentylphenyl)acetate administered at a total daily oral dose of 800 mg for up to 72 weeks in subjects with ALMS was undertaken. The initial duration of the study was 24 weeks, and subjects were offered to enrol into an extension phase of 36 or 48 weeks. The schedule of study procedures for the enrolment, intervention, and assessments for participants is outlined in FIG. 1. Sodium 2-(3-pentylphenyl)acetate was formulated in soft gelatine capsules containing 200 mg of Sodium 2-(3-pentylphenyl)acetate (amorphous powder) per capsule, polyethylene glycol 400, National Formulary (NF), hydrochloric acid (for pH adjustment), and water. Glycated hemoglobin (HbA1c) is measured primarily to determine the three-month average blood sugar level, and is used as a diagnostic test for diabetes mellitus and as an assessment test for glycemic control in people with diabetes. HbA1c was assessed in ALMS patients treated with sodium 2-(3-pentylphenyl)acetate. There was a statistically significant mean decrease of 0.53% (p=0.0144) in HbA1c from baseline after 12 weeks of treatment (Table 16)."}, "[2]": {"test_system": "ALMS patients", "experiment": "HOMA-B based on C-peptide and fasting plasma glucose", "details": "for Change from Baseline HOMA-B Based on C-Peptide and FPG, Mean / Change from Baseline HOMA-B Based on C-Peptide and FPG, Median: 800 mg", "method": "(§1) The study was a Phase 2, single-centre, single-arm, open-label study of sodium 2-(3-pentylphenyl)acetate administered at a total daily oral dose of 800 mg for up to 72 weeks in subjects with ALMS was undertaken. The initial duration of the study was 24 weeks, and subjects were offered to enrol into an extension phase of 36 or 48 weeks. The schedule of study procedures for the enrolment, intervention, and assessments for participants is outlined in FIG. 1. Sodium 2-(3-pentylphenyl)acetate was formulated in soft gelatine capsules containing 200 mg of Sodium 2-(3-pentylphenyl)acetate (amorphous powder) per capsule, polyethylene glycol 400, National Formulary (NF), hydrochloric acid (for pH adjustment), and water. E) Homeostasis Model Assessment for Steady State Beta-Cell Function Based on C-Peptide and Fasting Plasma Glucose (HOMA-B [C-Peptide/FPG]) The effect of sodium 2-(3-pentylphenyl)acetate on HOMA-B (C-peptide/FPG) was assessed, and the results are presented in Table 24."}, "[3]": {"test_system": "ALMS patients", "experiment": "Histological examination of adipocyte tissue artery (perivascular adipose tissue)", "details": "an ALMS subject; after 24 weeks of treatment with 800 mg; FIG. 3B", "method": "as §1, with “Baseline histological examination of an adipocyte tissue artery (perivascular adipose tissue) in an ALMS subject was characterized by signs of dystrophy, homogenized blurred cytoplasm in smooth muscle cells,” for “E) Homeostasis Model Assessment for Steady State Beta-Cell Function Based on C-Peptide”, “nuclei with irregular shape (FIG. 3A).” for “Fasting Plasma Glucose (HOMA-B [C-Peptide/FPG]) The effect of sodium 2-(3-pentylphenyl)acetate on HOMA-B (C-peptide/FPG) was assessed, and the results are presented in Table 24.”"}, "[4]": {"details": "Subject 826-001-001, 204-day break in treatment"}}, "note": "Values joined by “and” are separate entries in the source; they are usually repeats but may differ in a detail not shown here. Equal values may be shown once.", "data": [{"smiles": "CCCCCc1cccc(CC(=O)[O-])c1.[Na+]", "note": "[sodium 2-(3-pentylphenyl)acetate]", "values": [{"measurement": "subjects in whom HbA1c decreased or did not change from baseline", "setting": "[1]; 8/12 subjects", "value": 66.7, "unit": "%"}, {"measurement": "Change from Baseline HbA1c, Mean", "setting": "[1]; EP Week 12 (Week 36), N=10", "value": 0.24, "unit": "%"}, {"measurement": "Change from Baseline HbA1c, Median", "setting": "[1]; EP Week 12 (Week 36), N=10", "value": 0.00, "unit": "%"}, {"measurement": "Change from Baseline HbA1c, Mean", "setting": "[1]; EP Week 24 (Week 48), N=10", "value": "−0.28", "unit": "%"}, {"measurement": "Change from Baseline HbA1c, Median", "setting": "[1]; EP Week 24 (Week 48), N=10", "value": "−0.30", "unit": "%"}, {"measurement": "Change from Baseline HbA1c, Mean", "setting": "[1]; EP Week 36 (Week 60), N=9", "value": "−0.18", "unit": "%"}, {"measurement": "Change from Baseline HbA1c, Median", "setting": "[1]; EP Week 36 (Week 60), N=9", "value": "−0.10", "unit": "%"}, {"measurement": "Change from Baseline HbA1c, Mean", "setting": "[1]; EP Week 48 (Week 72), N=3", "value": 0.13, "unit": "%"}, {"measurement": "Change from Baseline HbA1c, Median", "setting": "[1]; EP Week 48 (Week 72), N=3", "value": 0.10, "unit": "%"}, {"measurement": "HbA1c increase above baseline by the last study visit", "setting": "[1]; [4]", "value": 1, "unit": "%"}, {"measurement": "HbA1c reduction below baseline", "setting": "[1]; Subjects 826-001-007, 826-001-009 and 826-001-014", "value": 1, "unit": "%"}, {"measurement": "Change from Baseline HbA1c, Mean", "setting": "[1]; Week 12, N=12", "value": "−0.53", "unit": "%"}, {"measurement": "Change from Baseline HbA1c, Median", "setting": "[1]; Week 12, N=12", "value": "−0.55", "unit": "%"}, {"measurement": "Change from Baseline HbA1c, Mean", "setting": "[1]; Week 24, N=12", "value": "−0.24", "unit": "%"}, {"measurement": "Change from Baseline HbA1c, Median", "setting": "[1]; Week 24, N=12", "value": "−0.05", "unit": "%"}, {"measurement": "mean decrease in HbA1c from baseline", "setting": "[1]; after 12 weeks of treatment, p=0.0144", "value": 0.53, "unit": "%"}, {"measurement": "HbA1c", "setting": "[1]; EP Week 12 (Week 36)", "value": "12.7% and 5.1% and 5.4% (3×) and 7.5% and 7.3% and 6.4% and 6.2% and 12%"}, {"measurement": "HbA1c", "setting": "[1]; EP Week 24 (Week 48)", "value": "10.6% (2×) and 4.9% and 4.7% and 5.7% and 6.8% and 5.4% and 6.5% and 6.3% and 6.7%"}, {"measurement": "HbA1c", "setting": "[1]; EP Week 36 (Week 60)", "value": "11.2% and 5.1% and 5.0% and 7.5% and 5.4% and 6.8% (2×) and 6.4% and 9.1%"}, {"measurement": "HbA1c", "setting": "[1]; EP Week 48 (Week 72)", "value": "11.1% and 5.0% and 4.9%"}, {"measurement": "HbA1c", "setting": "[1]; Week 12", "value": "10.1% and 5.3% and 5.0% and 5.7% (2×) and 8.2% and 5.5% and 6.7% and 6.1% and 10.6% and 6.4% and 6.5%"}, {"measurement": "HbA1c", "setting": "[1]; Week 24", "value": "11.1% and 5.4% (2×) and 4.8% and 5.6% and 9.1% and 7.0% and 6.2% and 10.0% and 6.6% and 8.6% and 6.1%"}, {"measurement": "Change from Baseline HOMA-B Based on C-Peptide and FPG, Mean", "setting": "[2]; EP Week 12 (Week 36), N 10", "value": 1.70}, {"measurement": "Change from Baseline HOMA-B Based on C-Peptide and FPG, Median", "setting": "[2]; EP Week 12 (Week 36), N 10", "value": 16.50}, {"measurement": "Change from Baseline HOMA-B Based on C-Peptide and FPG, Mean", "setting": "[2]; EP Week 24 (Week 48), N 9", "value": 24.57}, {"measurement": "Change from Baseline HOMA-B Based on C-Peptide and FPG, Median", "setting": "[2]; EP Week 24 (Week 48), N 9", "value": "−1.90"}, {"measurement": "Change from Baseline HOMA-B Based on C-Peptide and FPG, Mean", "setting": "[2]; EP Week 36 (Week 60), N 8", "value": 1.42}, {"measurement": "Change from Baseline HOMA-B Based on C-Peptide and FPG, Median", "setting": "[2]; EP Week 36 (Week 60), N 8", "value": 8.00}, {"measurement": "Change from Baseline HOMA-B Based on C-Peptide and FPG, Mean", "setting": "[2]; EP Week 48 (Week 72), N 3", "value": 60.17}, {"measurement": "Change from Baseline HOMA-B Based on C-Peptide and FPG, Median", "setting": "[2]; EP Week 48 (Week 72), N 3", "value": 89.40}, {"measurement": "Change from Baseline HOMA-B Based on C-Peptide and FPG, Mean", "setting": "[2]; Week 12, N 11", "value": 52.58}, {"measurement": "Change from Baseline HOMA-B Based on C-Peptide and FPG, Median", "setting": "[2]; Week 12, N 11", "value": 35.60}, {"measurement": "Change from Baseline HOMA-B Based on C-Peptide and FPG, Mean", "setting": "[2]; Week 24, N 12", "value": "−1.60"}, {"measurement": "Change from Baseline HOMA-B Based on C-Peptide and FPG, Median", "setting": "[2]; Week 24, N 12", "value": 0.60}, {"measurement": "subjects in whom HOMA-B (C-peptide/FPG) increased from baseline", "setting": "[2]; 9/12 subjects", "value": 75.0, "unit": "%"}, {"measurement": "reduction in HOMA-B (C-peptide/FPG)", "setting": "[2]; [4]", "value": 62.4}, {"measurement": "reduction in HOMA-B (C-peptide/FPG)", "setting": "[2]; Subject 826-001-007, 32-day break in treatment", "value": 33.4}, {"measurement": "reduction in HOMA-B (C-peptide/FPG)", "setting": "[2]; Subject 826-001-013, 30-day break in treatment", "value": 96.7}, {"measurement": "histological examination of adipocyte tissue artery", "setting": "[3]", "value": "the adipocyte tissue artery looked more normal"}]}]}
